Reference: patent publication US20220087962A1, “COMPOSITIONS AND METHODS FOR TREATING AGE-RELATED DISEASES OR CONDITIONS” (Arizona Board of Regents on Behalf of the University of …, priority 2019, published 2022)
Entries after “also recorded” stand apart in the source; their conditions may differ.

Legend:
[1] = system: C. elegans expressing human Aβ1-42 in body wall muscle; assay: Paralysis in C. elegans expressing human Aβ1-42 in body wall muscle (Alzheimer's disease model); type: in vivo, Caenorhabditis elegans; conditions: 3HAA supplementation; transgenic Aβ1-42 in body wall muscle
Experimental: It was then tested whether 3HAA would prevent Aβ toxicity in vivo. In C. elegans, transgenic expression of the aggregate-prone 42 amino acid form of Aβ (Aβ1-42) in body wall muscle induces paralysis (Link C D. Proc Natl Acad Sci USA 1995, 92:9368-72). […] Next and as described below, 3HAA will be tested as a treatment for amyloid pathology in a cellular context more relevant to AD.

hemeoxygenase-1 (HO-1) = conditions: human cell culture; cited from earlier work
C. elegans [2] = assay: C. elegans lifespan with 3HAA supplementation; type: in vivo, Caenorhabditis elegans; conditions: 3HAA supplementation of worms
Experimental: 3HAA mediates lifespan extension by haao-1 knockdown. 3HAA is red in color. Worms with reduced HAAO turned visibly red with age. Using liquid chromatography-tandem mass spectrometry (LC-MS/MS), it was confirmed that these worms had elevated 3HAA (FIG. 3B). Next, it was assessed whether 3HAA may mediate the benefits of reducing haao-1. Indeed, worms supplemented with 3HAA were long-lived (FIG. 3C), mimicking haao-1 knockdown (FIG. 3D).

[3] = system: C. elegans expressing a 35-unit polyglutamine repeat peptide in body wall muscle; assay: Paralysis in C. elegans expressing a 35-unit polyglutamine repeat peptide in body wall muscle (Huntington's disease model); type: in vivo, Caenorhabditis elegans; conditions: 3HAA supplementation; aggregate-prone polyglutamine repeat in body wall muscle
[4] = Direct interaction of 3HAA with H2O2 in vitro; conditions: addition of 3HAA in the absence of other media components
Text: (§1) Superoxide dismutases degrade cellular superoxide to oxygen and H2O2.

[5] = system: cultured human blood cells; conditions: cited from earlier work
C. elegans [6] = assay: Endogenous H2O2 produced by C. elegans in vivo; design: species or system Caenorhabditis elegans; conditions: 3HAA supplementation
Text: as §1

Aβ = Aβ (Homo sapiens, UniProt P05067); conditions: buffered media; direct binding to Aβ; cited from earlier work
Chain of Aβ (P05067 672-713 limits assumed): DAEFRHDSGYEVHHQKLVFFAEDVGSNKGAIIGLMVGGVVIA

brains of rats = conditions: cited from earlier work
α-synuclein = α-synuclein (Homo sapiens, UniProt P37840); conditions: QA self-assembled fibrils; cited from earlier work
tau = conditions: cultured human neurons; cited from earlier work
brain tissue = conditions: cited from earlier work

Compound	onset of paralysis (Aβ toxicity) [1]	expression of hemeoxygenase-1 (HO-1) (hemeoxygenase-1 (HO-1))	lifespan (C. elegans [2])	paralysis (polyglutamine repeat model) [3]	measureable H2O2 in vitro (direct degradation of H2O2) [4]	LDL oxidation [5]	endogenous H2O2 produced by C. elegans in vivo (C. elegans [6])	Aβ misfolding/aggregation in vitro (Aβ)	lipid peroxidation (brains of rats)	seeding of α-synuclein aggregation (α-synuclein)	tau phosphorylation (tau)	in vivo lipid peroxidation in brain tissue (brain tissue)
Nc1c(O)cccc1C(=O)O [3HAA, 3-hydroxyanthranilic acid]	delayed onset of paralysis; also recorded: delays paralysis; also recorded: delayed Aβ pathology	induces expression of the antioxidant hemeoxygenase-1 (HO-1)	long-lived; also recorded: extends lifespan; also recorded: robustly extended lifespan	delays paralysis	reduced measureable H2O2; also recorded: directly breaks down H2O2; also recorded: directly degrades H2O2; also recorded: direct degradation of hydrogen peroxide	prevents LDL oxidation	limited endogenous H2O2; also recorded: reduces H2O2 produced by C. elegans in vivo	prevents Aβ aggregation; also recorded: prevents Aβ misfolding through direct binding; also recorded: preventing misfolding and aggregation	prevents	–	–	–
O=C(O)c1cccnc1C(=O)O [QA, quinolinic acid]	–	–	–	–	–	–	–	–	–	seed and accelerate aggregation of α-synuclein; also recorded: seeding aggregation of α-synuclein	drives tau phosphorylation	induces in vivo lipid peroxidation in brain tissue
